The results in this text go back to ChEMBL document CHEMBL6103579, “Antiproliferative activity of selenium-enriched coumarin derivatives on the SK-N-SH neuroblastoma cell line: Mechanistic insights” (Eur J Med Chem, 2025).

One data set deals with Neuroblastoma cell. Kind of data set: Antiproliferative activity against human Neuroblastoma cell assessed as inhibition of cell growth incubated for 60 hrs by CCK-8 method. It is filed as functional, cell-based. On the technique in general: Tetrazolium assays rely on reduction of a dye to a coloured formazan, in cell work by metabolically active cells.
Data set [1] can be described thus: Antiproliferative activity against human Embryonic lung cell assessed as inhibition of cell growth incubated for 60 hrs by CCK-8 method. It is filed as toxicity, cell-based.

SMILES strings stand for the structures. Activity calls are given as the source filed them. The calls are words filed in the database; no cut-off is given here.

For the molecule `COc1ccc(C2CC(c3ccc(F)cc3)=NN2C(=O)c2cc3ccc(OCCC[Se]C#N)cc3oc2=O)cc1` (configuration not stated), the outcome in the data set on Neuroblastoma cell was Active. Moreover, the Activity result in data set [1] was “Non-toxic”.
